Assay results reported in patent publication US11903959B2 (EMORY UNIVERSITY, priority 2017, dated 2024).
Like-named read-outs stand apart in the source and are kept apart here.

Tests used:
Pichinde virus = assay: microbe, parasite or virus in culture; type: cell-based; details: Vero, Vero cells
Junin virus = assay: microbe, parasite or virus in culture; type: cell-based; details: Mammarenavirus juninense, Vero, Vero cells
Lassa fever virus = assay: organism not typed; type: cell-based; details: Vero
WEEV = assay: microbe, parasite or virus in culture; type: cell-based; details: Western equine encephalitis virus
RVFV = assay: microbe, parasite or virus in culture; type: cell-based; details: Rift Valley fever virus, Vero
Flu B = assay: microbe, parasite or virus in culture; type: cell-based; details: Influenza B virus, MDCK
Poliovirus -1 = assay: microbe, parasite or virus in culture; type: cell-based; details: Enterovirus C, Vero 76, Poliovirus -1, Vero76 cells
[1] = Cytotoxicity (CC50) run with antiviral assays, BHK cells; type: cell-based; details: hamster, Flaviviridae table
Experimental: Four-concentration CPE inhibition assays are performed. Confluent or near-confluent cell culture monolayers in 96-well disposable microplates are prepared. Cells are maintained in MEM or DMEM supplemented with FBS as required for each cell line. For antiviral assays the same medium is used but with FBS reduced to 2% or less and supplemented with 50 μg/mL gentamicin. The test compound is prepared at four log10 final concentrations, usually 0.1, 1.0, 10, and 100 μg/mL or μM. The virus control and cell control wells are on every microplate. In parallel, a known active drug is tested as a positive control drug using the same method as is applied for test compounds. The positive control is tested with each test run. The assay is set up by first removing growth media from the 96-well plates of cells. Then the test compound is applied in 0.1 mL volume to wells at 2× concentration. […] The dye content in each well is quantified using a 96-well spectrophotometer at 540 nm wavelength. […]
This assay involves similar methodology to what is described in the previous paragraphs using 96-well microplates of cells. […] The incorporated dye content is quantified as described above. […] Compounds observed to be active above are further evaluated by VYR assay. […] Wells are scored for presence or absence of virus after distinct CPE (measured by neutral red uptake) is observed. […]

[2] = female, DBA-1J, mouse, in vivo
[3] = cynomolgus monkey, in vivo, po; for AUC0->24 h / CL / Cmax / t1/2 / tmax: 0.4 mmol/kg
[4] = Cytotoxicity (CC50) run with antiviral assays, HG23 cells; details: human
[5] = Cytotoxicity (CC50) run with antiviral assays, HeLa-Ohio cells; details: human
[6] = Plasma pharmacokinetics in dogs after a single dose of EIDD-2800; details: dog, 140 mg/kg

SMILES: O=c1nc(NO)ccn1C1OC(CO)C(O)C1O (stereo not drawn) [EIDD-1931, 1-(3,4-dihydroxy-5-(hydroxymethyl)tetrahydrofuran-2-yl)-4-(hydroxyamino)pyrimidin-2-one]
- EC50 (Pichinde virus): 18.4 µM
- EC50 (Junin virus): 18.4 µM
- EC50 (Lassa fever virus): 4.04 µM
- EC90 (WEEV; Vero 76): < 1.28 µM
- EC50 (WEEV; Vero 76, WEEV, Vero76 cells): 1.28 µM
- EC50 (WEEV; Vero, WEE virus, Vero cell cytopathic effect (CPE) model): 1.36 µM
- EC90 (RVFV): 1 µM
- EC50 (RVFV; RVFV, Vero cells): 1.68 µM
- EC50 (Flu B): < 0.4 µM
- EC50 (Poliovirus -1): 12.8 µM
- CC50 [1]: 30 µM
- Bioavailability (versus i.p. delivery) [2]: 39-46%
- Bioavailability (versus i.p. delivery) ([2]; 30 mg/kg): 65%
- plasma T1/2 ([2]; iv): 2.2 h
- bioavailability [3]: low bioavailability
- F ([3]; female): ~3%
- AUC0->24 h ([3]; female): 7.21 ± 4.21 µM·h
- CL ([3]; female): 1100 ± 527 mL/min/kg
- Cmax ([3]; female): 3.31 ± 1.99 µM
- t1/2 ([3]; female): 0.78 ± 0.2 h
- tmax ([3]; female): 0.87 ± 0.75 h
- AUC0->24 h ([3]; male): 5.75 ± 1.99 µM·h
- CL ([3]; male): 1170 ± 312 mL/min/kg
- Cmax ([3]; male): 3.31 ± 1.82 µM
- t1/2 ([3]; male): 1.2 ± 1.2 h
- tmax ([3]; male): 0.75 ± 0.28 h
- CC50 [4]: > 100 µM
- CC50 [5]: > 40 µM
- AUC(0-inf) [6]: 498 ± 40.4 µM·h
- tmax [6]: 1.4 ± 0.5 h
